These results are taken from PubChem BioAssay (NCI).

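Following 48 hours of exposure in 96-well plates, responses at five concentrations were used to interpolate endpoints linearly. TGI: concentration producing complete growth inhibition.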

Some test systems named below: UACC-257 melanoma; SK-MEL-2 melanoma; CCRF-CEM leukemia; K-562 leukemia; HOP-92 NSCLC; HL-60(TB) leukemia; UACC-62 melanoma; HOP-62 NSCLC; U251 CNS; SF-268 CNS; SK-MEL-5 melanoma; OVCAR-4 ovarian; SW-620 colon.
Assay in all cases: inhibition of tumour cell growth, NCI panel, 48 h

For the compound `COc1ccc(C(c2ccccc2)N2C(=O)CCC2C(=O)O)cc1OC` (centres undefined), the TGI in the assay on UACC-257 melanoma, in the assay on SK-MEL-2 melanoma, with CCRF-CEM leukemia, in the assay on K-562 leukemia, in the assay on HOP-92 NSCLC and with HL-60(TB) leukemia was above 100 µM throughout. Besides, the TGI in the assay with UACC-62 melanoma, in the assay on HOP-62 NSCLC, in the assay with U251 CNS, in the assay with SF-268 CNS, in the assay on SK-MEL-5 melanoma and in the assay with OVCAR-4 ovarian was above 100 µM in each case. In the assay on SW-620 colon, this compound came in with a TGI above 100 µM.

Consider `CCCCC[C@H]1CC=CC(=O)O1`, for which the TGI in the assay with UACC-257 melanoma is 32.6 µM; with SK-MEL-2 melanoma, 19.1 µM; with CCRF-CEM leukemia, 40.6 µM; in the assay on K-562 leukemia, above 100 µM; with HOP-92 NSCLC it was 53.3 µM; in the assay on HL-60(TB) leukemia, 20.3 µM. Also, the TGI was determined as 23 µM in the assay on UACC-62 melanoma; 45.3 µM with HOP-62 NSCLC; 20.8 µM in the assay on U251 CNS; 22.3 µM in the assay on SF-268 CNS; 21.3 µM in the assay on SK-MEL-5 melanoma; 27.3 µM in the assay on OVCAR-4 ovarian. The compound further displayed a TGI with SW-620 colon of 18.7 µM.

Take `CCOC(=O)c1cc(NC(=O)c2ccccc2)c(=O)n2c(cc3c(Cl)cccc32)c1O`: the TGI in the assay on UACC-257 melanoma, in the assay on SK-MEL-2 melanoma, in the assay with CCRF-CEM leukemia, in the assay with K-562 leukemia, in the assay with HOP-92 NSCLC and with HL-60(TB) leukemia was above 100 µM in each case. Moreover, the TGI in the assay with UACC-62 melanoma, with HOP-62 NSCLC, in the assay with U251 CNS, in the assay with SF-268 CNS, in the assay on SK-MEL-5 melanoma and with OVCAR-4 ovarian was above 100 µM each time. The same compound had a TGI in the assay on SW-620 colon above 100 µM.

For the compound `c1ncc(C23C4C5C6C4C2C6C53)[nH]1` (centres undefined), the TGI with UACC-257 melanoma, in the assay on SK-MEL-2 melanoma, in the assay with CCRF-CEM leukemia, in the assay with K-562 leukemia, in the assay with HOP-92 NSCLC and in the assay on HL-60(TB) leukemia was above 100 µM each time. Moreover, the TGI in the assay with UACC-62 melanoma, in the assay on HOP-62 NSCLC, in the assay with U251 CNS, in the assay with SF-268 CNS, in the assay on SK-MEL-5 melanoma and with OVCAR-4 ovarian was above 100 µM each time. In addition, the TGI in the assay on SW-620 colon is above 100 µM.

Consider `Nc1nc(Cl)cc(NCC2(CO)CC(O)C2)n1` (centres undefined), for which the TGI with UACC-257 melanoma, in the assay on SK-MEL-2 melanoma, in the assay on CCRF-CEM leukemia, in the assay with K-562 leukemia, with HOP-92 NSCLC and in the assay on HL-60(TB) leukemia was above 100 µM throughout. Further, the TGI with UACC-62 melanoma, with HOP-62 NSCLC, in the assay on U251 CNS, with SF-268 CNS, with SK-MEL-5 melanoma and in the assay on OVCAR-4 ovarian was above 100 µM each time. For the same compound, in the assay with SW-620 colon, the TGI was above 100 µM.

With `CC(=O)NC1C(OCc2ccccc2)OC(CO)C(O)C1OC(C)C(=O)NC(C(=O)NC(CCC(=O)Nc1ccc2c(c1)CN1C(=O)c3ccccc3C1=N2)C(N)=O)C(C)C` (centres undefined), the TGI with UACC-257 melanoma, in the assay on SK-MEL-2 melanoma, in the assay with CCRF-CEM leukemia, with K-562 leukemia, in the assay on HOP-92 NSCLC and in the assay on HL-60(TB) leukemia was above 100 µM each time. Also, the TGI in the assay on UACC-62 melanoma, with HOP-62 NSCLC, in the assay on U251 CNS, in the assay with SF-268 CNS, in the assay on SK-MEL-5 melanoma and in the assay with OVCAR-4 ovarian was above 100 µM each time. This compound also yielded a TGI with SW-620 colon above 100 µM.

For the compound `COc1ccc(N=C/C=C/C(=C/COC(C)=O)OC(C)=O)cc1`, the TGI with UACC-257 melanoma was 87.2 µM; in the assay on SK-MEL-2 melanoma, 48.1 µM; with CCRF-CEM leukemia it was above 100 µM; in the assay on K-562 leukemia it was 19.2 µM; in the assay on HOP-92 NSCLC, 57.4 µM; in the assay with HL-60(TB) leukemia, 98.5 µM. Moreover, the TGI in the assay with UACC-62 melanoma is above 100 µM; with HOP-62 NSCLC it was above 100 µM; in the assay with U251 CNS, 72.3 µM; in the assay on SF-268 CNS, 86 µM; in the assay on SK-MEL-5 melanoma it was 76.6 µM; with OVCAR-4 ovarian, 93.8 µM. For the same compound, the TGI in the assay on SW-620 colon is 32.6 µM.

With `Cc1c(O)c(OC2OC(CO)C(O)C(O)C2O)cc2c1CC[C@@H]1C2(C)C(=O)C[C@]2(C)[C@@H]([C@@](C)(O)C(O)CCC(C)(C)O)[C@H](O)C[C@@]12C` (some centres undefined), the TGI in the assay on UACC-257 melanoma, in the assay on SK-MEL-2 melanoma, with CCRF-CEM leukemia, with K-562 leukemia, with HOP-92 NSCLC and with HL-60(TB) leukemia was above 100 µM throughout. For the same compound, the TGI in the assay with UACC-62 melanoma, in the assay with HOP-62 NSCLC, in the assay with U251 CNS, in the assay on SF-268 CNS, in the assay with SK-MEL-5 melanoma and in the assay on OVCAR-4 ovarian was above 100 µM throughout. In the assay with SW-620 colon, this compound registered a TGI above 100 µM.
